Data from the supplement of paper PMC10307832.

Legend:
Assay in all cases: relative viability (nuclei count vs DMSO), 5 days (fraction); higher = more cells survive
Obatoclax + Linsitinib = compound: COC1=CC(c2cc3ccccc3[nH]2)=N/C1=C\c1[nH]c(C)cc1C [Obatoclax] + C[C@]1(O)C[C@@H](c2nc(-c3ccc4ccc(-c5ccccc5)nc4c3)c3c(N)nccn32)C1 [Linsitinib] (partner 1 µM)
In short: (§1)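 A single step with final 0.05% Triton X-100, 1% formaldehyde and 1 ug/ml Hoechst fixed the cells and stained nuclei 5 days after treatment. Lung cancer cell lines in 1536-well plates had been treated by pin tool the day after seeding with one drug alone or a fixed anchor-drug dose plus five library-drug doses (not always all listed) in √10 steps, and nuclei were counted on 4× images. Relative viability is the ratio of nuclei in treated wells to nuclei in vehicle wells, taken as the median of duplicate plates.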

Bortezomib + Crizotinib = compound: CC(C)C[C@H](NC(=O)[C@H](Cc1ccccc1)NC(=O)c1cnccn1)B(O)O [Bortezomib] + C[C@@H](Oc1cc(-c2cnn(C3CCNCC3)c2)cnc1N)c1c(Cl)ccc(F)c1Cl [Crizotinib] (partner 1 µM)
In short: as §1

Bortezomib + Linsitinib = compound: CC(C)C[C@H](NC(=O)[C@H](Cc1ccccc1)NC(=O)c1cnccn1)B(O)O [Bortezomib] + C[C@]1(O)C[C@@H](c2nc(-c3ccc4ccc(-c5ccccc5)nc4c3)c3c(N)nccn32)C1 [Linsitinib] (partner 1 µM)
In short: as §1

Obatoclax + Olaparib = compound: COC1=CC(c2cc3ccccc3[nH]2)=N/C1=C\c1[nH]c(C)cc1C [Obatoclax] + O=C(c1cc(Cc2n[nH]c(=O)c3ccccc23)ccc1F)N1CCN(C(=O)C2CC2)CC1 [Olaparib] (partner 8 µM)
In short: as §1

Row | Cell Line | relative viability (Obatoclax + Linsitinib; first compound 0.01 µM) | relative viability (Obatoclax + Linsitinib; first compound 0.03162 µM) | relative viability (Obatoclax + Linsitinib; first compound 0.1 µM) | relative viability (Obatoclax + Linsitinib; first compound 0.3162 µM) | relative viability (Obatoclax + Linsitinib; first compound 1 µM) | relative viability (Bortezomib + Crizotinib; first compound 0.0002 µM) | relative viability (Bortezomib + Crizotinib; first compound 0.000632 µM) | relative viability (Bortezomib + Crizotinib; first compound 0.002 µM) | relative viability (Bortezomib + Crizotinib; first compound 0.006325 µM) | relative viability (Bortezomib + Crizotinib; first compound 0.02 µM) | relative viability (Bortezomib + Linsitinib; first compound 0.0002 µM) | relative viability (Bortezomib + Linsitinib; first compound 0.000632 µM) | relative viability (Bortezomib + Linsitinib; first compound 0.002 µM) | relative viability (Bortezomib + Linsitinib; first compound 0.006325 µM) | relative viability (Bortezomib + Linsitinib; first compound 0.02 µM) | relative viability (Obatoclax + Olaparib; first compound 0.01 µM) | relative viability (Obatoclax + Olaparib; first compound 0.03162 µM) | relative viability (Obatoclax + Olaparib; first compound 0.1 µM) | relative viability (Obatoclax + Olaparib; first compound 0.3162 µM) | relative viability (Obatoclax + Olaparib; first compound 1 µM)
1 | NCI-H2023 | 0.624 | 0.648 | 0.635 | 0.608 | 0.279 | 0.606 | 0.718 | 0.598 | 0.146 | 0.0674 | 0.68 | 0.723 | 0.711 | 0.102 | 0.0845 | 0.485 | 0.574 | 0.442 | 0.246 | 0.15
2 | EBC-1 | 0.771 | 0.879 | 0.922 | 0.87 | 0.65 | 0.172 | 0.172 | 0.162 | 0.106 | 0.0978 | 0.902 | 0.801 | 0.516 | 0.0706 | 0.0667 | 0.632 | 0.765 | 0.642 | 0.583 | 0.269
3 | NCI-H1666 | 0.876 | 0.822 | 0.745 | 0.313 | 0.275 | 0.941 | 1.11 | 0.9 | 0.202 | 0.228 | 0.791 | 0.777 | 0.932 | 0.226 | 0.2 | 0.769 | 0.726 | 0.766 | 0.691 | 0.585
4 | NCI-H1975 | 0.988 | 0.989 | 0.99 | 0.939 | 0.971 | 0.944 | 0.883 | 0.192 | 0.128 | 0.127 | 0.965 | 0.964 | 0.189 | 0.144 | 0.125 | 0.78 | 0.695 | 0.746 | 0.744 | 0.288
5 | NCI-H1793 | 0.802 | 0.662 | 0.935 | 0.77 | 0.78 | – | – | – | – | – | 0.771 | 0.723 | 0.808 | 0.778 | 0.149 | 0.869 | 0.833 | 0.939 | 0.784 | 0.783
6 | NCI-H1355 | 0.867 | 0.87 | 0.802 | 0.739 | 0.75 | 1.02 | 1.06 | 0.788 | 0.275 | 0.139 | 0.85 | 0.777 | 0.615 | 0.837 | 0.124 | 0.76 | 0.767 | 0.781 | 0.667 | 0.717
7 | SW 900 | – | – | – | – | – | – | – | – | – | – | – | – | – | – | – | 0.893 | 0.803 | 0.924 | 0.703 | 0.606
8 | A549 | 0.601 | 0.55 | 0.621 | 0.635 | 0.626 | 0.767 | 0.631 | 0.789 | 0.0392 | 0.0432 | 0.667 | 0.538 | 0.423 | 0.122 | 0.0542 | 0.326 | 0.367 | 0.0867 | 0.361 | 0.342
9 | NCI-H2170 | – | – | – | – | – | 1.03 | 1.02 | 1.11 | 0.233 | 0.18 | – | – | – | – | – | 0.574 | 0.607 | 0.574 | 0.585 | 0.655
